{"source": "paper PMC9436859", "about": "“Chromatographic separation of glycated peptide isomers derived from glucose and fructose” (Analytical and Bioanalytical Chemistry, 2022)", "type_in_all_cases": "physicochemical", "key": {"[1]": {"assay": "RP-HPLC retention at neutral pH, Aqua C18, sodium phosphate", "settings": "Aqua C18 (3 µm, 125 Å), sodium phosphate 10 mmol/L pH 7.2, 0.6% acetonitrile/min, 60 °C, UV 214 nm, mixture of family #2, order from individual injections", "protocol": "(§1) Separations used either a Synergi Fusion-RP C18 column (ID: 2 mm, length: 150 mm, particle size: 4 µm, pore size: 80 Å, Phenomenex) or Aqua C18 column (ID: 2 mm, length: 150 mm, particle size: 3 µm, pore size: 125 Å, Phenomenex) using a System Gold HPLC equipped with a 507e autosampler (100 µL injection volume), a 125NM binary gradient pump, and a 166 UV/VIS detector. Eluents were water (eluent B1) and aqueous acetonitrile (60% v/v, eluent B2 or 40% v/v, eluent B3) containing sodium or potassium phosphate buffer or ammonium acetate (10 mmol/L). Eluents were prepared from aqueous stock solutions (0.1 mol/L) adjusted to pH 7.2, in case of ammonium acetate with ammonia. Solvents were filtered (pore size, 0.2 µm; Pall Corp., Ann Arbor, MI) and sonicated for 15 min prior to use. Peptides were eluted using a linear acetonitrile gradient from either 5 to 95% eluent B2 in 30 min, 5 to 70% eluent B2 in 65 min, or 7.5 to 95% eluent B3 in 58 min. Unless otherwise indicated, separations were performed at 60 °C with a flow rate of 0.2 mL/min and the absorbance was recorded at 214 nm. Fractions were analyzed by matrix-assisted laser desorption/ionization time-of-flight MS (MALDI-TOF/TOF–MS) on a 5800 proteomic analyzer (ABSciex GmbH, Darmstadt, Germany) operating in reflector mode and using a solution of α-cyano-4-hydroxycinnamic acid (4 g/L) in eluent A2 as matrix."}, "[2]": {"assay": "RP-HPLC retention at neutral pH, Synergi Fusion RP, potassium phosphate", "settings": "potassium phosphate 10 mmol/L pH 7.2, 60 °C, UV 214 nm; for retention time (tr): Synergi Fusion RP, family #2 mixture (Fig. S10)", "protocol": "as §1"}, "[3]": {"assay": "IP-RP-HPLC retention, Jupiter C18, 0.1% TFA", "settings": "60 °C, UV 214 nm", "protocol": "Separations used a Jupiter C18 column (ID: 2 mm, length: 150 mm, particle size: 5 µm, pore size: 300 Å, Phenomenex) and a System Gold HPLC equipped with a 508 autosampler (100 µL injection volume), a 125NM binary gradient pump, and a UV detector (Knauer GmbH, Berlin, Germany). Eluents were 0.1% (v/v) TFA (eluent A1) and 60% (v/v) aqueous acetonitrile containing 0.1% (v/v) TFA (eluent A2). Peptides were eluted using a linear acetonitrile gradient from either 5 to 95% eluent A2 in 30 min or 5 to 60% eluent A2 in 55 min. Separations were performed at a column temperature of 60 °C with a flow rate of 0.2 mL/min, and the absorbance was recorded at 214 nm. Separations were performed twice with deviations of the retention times of ~ 0.2 min for the shallow gradient."}, "[4]": {"assay": "RP-HPLC retention at neutral pH, Synergi Fusion RP, sodium phosphate", "settings": "linear 65-min gradient 3 to 42% acetonitrile, sodium phosphate 10 mmol/L pH 7.2, 60 °C, UV 214 nm, family mixture", "protocol": "as §1"}, "[5]": {"assay": "nanoUPLC-ESI-Orbitrap-MS retention, BEH C18, 0.1% formic acid", "settings": "nanoRP-UPLC, 30 °C, XIC; for retention time (tr): Acquity BEH C18 (1.7 µm), 87-min gradient 3 to 40% acetonitrile, glycated peptide mixture, 500 fmol each, glucated peptide or glucosyl-lysine species of the fructated peptide; for retention time (tr), mannosyl-lysine species: Acquity BEH C18, 87-min gradient 3 to 40% acetonitrile, second peak of the fructated peptide (mannosyl-lysine)", "protocol": "Peptides were analyzed on a nanoAcquity UPLC (Waters GmbH) coupled on-line to an LTQ Orbitrap XL ETD mass spectrometer equipped with a nano-ESI source (Thermo Fisher Scientific GmbH, Bremen, Germany) operated in positive ion mode. Eluents were aqueous formic acid (0.1% v/v; eluent D1) and acetonitrile-containing formic acid (0.1% v/v; eluent D2). Peptides (10 µL, 500 fmol each) were trapped on a nanoAcquity Symmetry C18 column (ID: 180 μm, length: 2 cm, particle diameter: 5 μm) at a flow rate of 5 μL/min (3% eluent D2). Separation was achieved on a BEH 130 column (C18 phase, ID: 75 μm, length: 10 cm, particle diameter: 1.7 μm) using a flow rate of 0.4 μL/min and a column temperature of 30 °C. Peptides were eluted with two linear gradients from 3 to 40% eluent D2 in 87 min and then to 85% eluent D2 in 5 min. The transfer capillary temperature was set to 200 °C, and an ion spray voltage of 1.4 kV was applied to a PicoTip™ on-line nano-ESI emitter (New Objective, Berlin, Germany). Mass spectra (m/z range 400 to 2000) were recorded in the Orbitrap mass analyzer at a resolution of 60,000 at m/z 400. Tandem mass spectra were acquired in CID mode (isolation width 2 m/z units, normalized collision energy 35%, activation time 30 ms, default charge state 2, intensity threshold of 500 counts) using data-dependent acquisition (DDA) for the six most intense signals with a dynamic exclusion window of 60 s."}, "[6]": {"settings": "Jupiter C18, 0.1% TFA, 0.6% acetonitrile/min, family injected as a mixture (Fig. S3F)"}}, "data": [{"substance": "ADLAKAmaYIC*ENQDSISSK [2B, glucated (Amadori) tryptic peptide HSA A258-K274, K262]", "values": [{"measurement": "retention time (tr)", "setting": "[1]", "result": 38.0, "unit": "min"}, {"measurement": "retention time (tr)", "setting": "[2]", "result": 32.9, "unit": "min"}]}, {"substance": "ADLAKHeyYIC*ENQDSISSK [2C, fructated (Heyns) tryptic peptide HSA A258-K274, K262]", "values": [{"measurement": "retention time (tr)", "setting": "[1]", "result": 36.5, "unit": "min"}, {"measurement": "retention time (tr)", "setting": "[2]", "result": 31.4, "unit": "min"}]}, {"substance": "AEFAEVSKAmaLVTDLTK [6B, glucated (Amadori) tryptic peptide HSA A226-K240, K233]", "values": [{"measurement": "retention time", "setting": "[3]; [6]", "result": 52.2, "unit": "min"}, {"measurement": "retention time (tr)", "setting": "[4]", "result": 45.3, "unit": "min"}, {"measurement": "retention time (tr)", "setting": "[5]", "result": 56.0, "unit": "min"}]}, {"substance": "AEFAEVSKHeyLVTDLTK [6C, fructated (Heyns) tryptic peptide HSA A226-K240, K233]", "values": [{"measurement": "retention time", "setting": "[3]; [6]", "result": 51.9, "unit": "min"}, {"measurement": "retention time (tr)", "setting": "[4]", "result": 43.4, "unit": "min"}, {"measurement": "retention time (tr)", "setting": "[5]", "result": 55.7, "unit": "min"}, {"measurement": "retention time (tr), mannosyl-lysine species", "setting": "[5]", "result": 56.3, "unit": "min"}]}, {"substance": "AVGDKHeyLPEC*EAVC*GKPK [1C, fructated (Heyns) tryptic peptide HP A77-K93, glycation site K81]", "values": [{"measurement": "retention time", "setting": "[3]; Jupiter C18 (5 µm, 300 Å), 0.1% TFA, 5 to 60% eluent A2 in 55 min (0.6% acetonitrile/min), 0.2 mL/min, performed twice, deviations ~0.2 min", "result": 27.6, "unit": "min"}, {"measurement": "acetonitrile content at elution", "setting": "[3]; Jupiter C18, 0.1% TFA, 0.6% acetonitrile/min", "result": "~ 13%"}]}, {"substance": "EQLKAmaAVMDDFAAFVEK [7B, glucated (Amadori) tryptic peptide HSA E542-K557, K545]", "values": [{"measurement": "retention time (tr)", "setting": "[5]", "result": 59.5, "unit": "min"}]}, {"substance": "EQLKHeyAVMDDFAAFVEK [7C, fructated (Heyns) tryptic peptide HSA E542-K557, K545]", "values": [{"measurement": "retention time (tr)", "setting": "[5]", "result": 59.5, "unit": "min"}, {"measurement": "retention time (tr), mannosyl-lysine species", "setting": "[5]", "result": 60.2, "unit": "min"}]}, {"substance": "TC*VADESAENC*DKHeySLHTLFGDK [3C, fructated (Heyns) tryptic peptide HSA T52-K73, K64]", "values": [{"measurement": "retention time", "setting": "[2]; new Synergi Fusion RP column, 58-min gradient 3 to 38% acetonitrile (eluent B3, 0.6%/min)", "result": 26.2, "unit": "min"}]}]}
